Test results taken from US20210254056A1, “IDENTIFICATION AND TARGETED MODULATION OF GENE SIGNALING NETWORKS” (CAMP4 THERAPEUTICS CORPORATION, priority 2017, published 2021).

Tested on: hepatocytes
Assay: RNA-seq of hepatocytes treated with Phase III failure compounds
Protocol: RNA-seq was performed to determine the effects of the compounds on hepatocytes.
Significance was determined by the criteria of FPKM≥0.5, a log 2(fold-change)≥1, and a […].

## NC(=O)c1ccc(I)c([N+](=O)[O-])c1 [BSI-201]
  RNA-seq results, CYP2B6 expression: 0.07
  RNA-seq results, CYP2C19 expression: 0.30
  RNA-seq results, CYP2D6 expression: −0.15
  RNA-seq results, CYP3A4 expression: −0.46
  RNA-seq results, CYP7B1 expression: 0.03
  RNA-seq results, CYP39A1 expression: −0.20
  RNA-seq results: CYP2B6 expression: 0.48
  RNA-seq results: CYP2C19 expression: 0.24
  RNA-seq results: CYP2D6 expression: 0.11
  RNA-seq results: CYP3A4 expression: 3.12
  RNA-seq results: CYP7B1 expression: 0.05
  RNA-seq results: CYP39A1 expression: 0.43
RNA-seq, q≤0.05, hepatocytes, genes in the value or listed in the block
  significant modulation of expression of disease genes: significantly (q≤0.05) modulate expression of RMRP
Gene A1BG, hepatocytes
  RNA-seq results: A1BG expression: −0.21
Gene AGTR1, hepatocytes
  RNA-seq results: AGTR1 expression: −0.22
Gene AGXT, hepatocytes
  RNA-seq results: AGXT expression: −0.06
Gene AHI1, hepatocytes
  RNA-seq results: AHI1 expression: 0.33
Gene AMPD3, hepatocytes
  RNA-seq results: AMPD3 expression: 0.19
Gene AMT, hepatocytes
  RNA-seq results: AMT expression: −0.04
Gene ANGPTL3, hepatocytes
  RNA-seq results: ANGPTL3 expression: −0.14
Gene ANKS4B, hepatocytes
  RNA-seq results: ANKS4B expression: −0.24
Gene ANKS6, hepatocytes
  RNA-seq results: ANKS6 expression: 0.04
Gene ANPEP, hepatocytes
  RNA-seq results: ANPEP expression: −0.09
Gene AOC2, hepatocytes
  RNA-seq results: AOC2 expression: 0.36
Gene APOA2, hepatocytes
  RNA-seq results: APOA2 expression: −0.52
Gene APOA5, hepatocytes
  RNA-seq results: APOA5 expression: −0.17
Gene APOB, hepatocytes
  RNA-seq results: APOB expression: 0.03
Gene COG5, hepatocytes
  RNA-seq results: COG5 expression: −0.06
Gene COG6, hepatocytes
  RNA-seq results: COG6 expression: −0.01
Gene COL1A1, hepatocytes
  RNA-seq results: COL1A1 expression: −0.34
Gene COX6A1, hepatocytes
  RNA-seq results: COX6A1 expression: −0.13
Gene CP, hepatocytes
  RNA-seq results: CP expression: 0.11
Gene CPS1, hepatocytes
  RNA-seq results: CPS1 expression: 0.09
Gene CPT1A, hepatocytes
  RNA-seq results: CPT1A expression: −0.18
Gene CPT2, hepatocytes
  RNA-seq results: CPT2 expression: 0.10
Gene CROT, hepatocytes
  RNA-seq results: CROT expression: −0.04
Gene CSPP1, hepatocytes
  RNA-seq results: CSPP1 expression: −0.07
Gene CTC1, hepatocytes
  RNA-seq results: CTC1 expression: −0.08
Gene CTDSP2, hepatocytes
  RNA-seq results: CTDSP2 expression: 0.10
Gene CTH, hepatocytes
  RNA-seq results: CTH expression: 0.23
Gene CTNS, hepatocytes
  RNA-seq results: CTNS expression: 0.08
Gene CTSF, hepatocytes
  RNA-seq results: CTSF expression: 0.10
Gene CTSK, hepatocytes
  RNA-seq results: CTSK expression: −0.15
Gene CYB5A, hepatocytes
  RNA-seq results: CYB5A expression: 0.73
Gene CYB5R3, hepatocytes
  RNA-seq results: CYB5R3 expression: 0.04
Gene CYP27A1, hepatocytes
  RNA-seq results: CYP27A1 expression: 0.04
Gene DAO, hepatocytes
  RNA-seq results: DAO expression: −0.04
Gene DBT, hepatocytes
  RNA-seq results: DBT expression: 0.04
Gene DCDC2, hepatocytes
  RNA-seq results: DCDC2 expression: 0.01
Gene DCXR, hepatocytes
  RNA-seq results: DCXR expression: −0.01
Gene FABP1, hepatocytes
  RNA-seq results: FABP1 expression: −0.25
Gene FADD, hepatocytes
  RNA-seq results: FADD expression: −0.08
Gene FAM111A, hepatocytes
  RNA-seq results: FAM111A expression: 0.07
Gene FAM111B, hepatocytes
  RNA-seq results: FAM111B expression: 0.03
Gene FAN1, hepatocytes
  RNA-seq results: FAN1 expression: 0.05
Gene FARS2, hepatocytes
  RNA-seq results: FARS2 expression: −0.14
Gene FASLG, hepatocytes
  RNA-seq results: FASLG expression: −0.21
Gene FGA, hepatocytes
  RNA-seq results: FGA expression: 0.16
Gene FGD1, hepatocytes
  RNA-seq results: FGD1 expression: −0.07
Gene FGFR2, hepatocytes
  RNA-seq results: FGFR2 expression: 0.07
Gene FIG4, hepatocytes
  RNA-seq results: FIG4 expression: −0.12
Gene FIS1, hepatocytes
  RNA-seq results: FIS1 expression: −0.06
Gene FTCD, hepatocytes
  RNA-seq results: FTCD expression: 0.31
Gene FTH1, hepatocytes
  RNA-seq results: FTH1 expression: 0.06
Gene FUCA1, hepatocytes
  RNA-seq results: FUCA1 expression: −0.11
Gene FXN, hepatocytes
  RNA-seq results: FXN expression: 0.23
Gene G6PC3, hepatocytes
  RNA-seq results: G6PC3 expression: 0.02
Gene G6PC, hepatocytes
  RNA-seq results: G6PC expression: 0.12
Gene G6PD, hepatocytes
  RNA-seq results: G6PD expression: 0.13
Gene GALK1, hepatocytes
  RNA-seq results: GALK1 expression: −0.03
Gene GALK2, hepatocytes
  RNA-seq results: GALK2 expression: 0.00
Gene GALT, hepatocytes
  RNA-seq results: GALT expression: 0.01
Gene GATA6, hepatocytes
  RNA-seq results: GATA6 expression: −0.07
Gene GATM, hepatocytes
  RNA-seq results: GATM expression: −0.15
Gene GBA, hepatocytes
  RNA-seq results: GBA expression: 0.02
Gene GBE1, hepatocytes
  RNA-seq results: GBE1 expression: −0.15
Gene GCH1, hepatocytes
  RNA-seq results: GCH1 expression: −0.06
Gene GCKR, hepatocytes
  RNA-seq results: GCKR expression: 0.23
Gene GCLC, hepatocytes
  RNA-seq results: GCLC expression: −0.04
Gene GOSH, hepatocytes
  RNA-seq results: GOSH expression: 0.46
Gene RRM2B, hepatocytes
  RNA-seq results: RRM2B: −0.28
Gene RSAD1, hepatocytes
  RNA-seq results: RSAD1: −0.02
Gene SAMHD1, hepatocytes
  RNA-seq results: SAMHD1: −0.24
Gene SC5D, hepatocytes
  RNA-seq results: SC5D: −0.29
Gene SCARB1, hepatocytes
  RNA-seq results: SCARB1: −0.03
Gene SCN9A, hepatocytes
  RNA-seq results: SCN9A: 0.10
Gene SDCCAG8, hepatocytes
  RNA-seq results: SDCCAG8: −0.06
Gene SEPN1, hepatocytes
  RNA-seq results: SEPN1: −0.11
Gene SERAC1, hepatocytes
  RNA-seq results: SERAC1: −0.22
Gene SERPINA1, hepatocytes
  RNA-seq results: SERPINA1: −0.17
Gene SERPING1, hepatocytes
  RNA-seq results: SERPING1: −0.16
Gene SERPINI1, hepatocytes
  RNA-seq results: SERPINI1: −0.41
Gene SETBP1, hepatocytes
  RNA-seq results: SETBP1: 0.06
Gene SFXN4, hepatocytes
  RNA-seq results: SFXN4: −0.19
Gene SLC10A1, hepatocytes
  RNA-seq results: SLC10A1: −0.31
Gene SLC10A3, hepatocytes
  RNA-seq results: SLC10A3: 0.33
Gene SLC10A5, hepatocytes
  RNA-seq results: SLC10A5: 0.19
Gene SLC10A7, hepatocytes
  RNA-seq results: SLC10A7: −0.38
Gene SLC11A2, hepatocytes
  RNA-seq results: SLC11A2: −0.02
Gene SLC19A1, hepatocytes
  RNA-seq results: SLC19A1: 0.05
Gene SLC19A2, hepatocytes
  RNA-seq results: SLC19A2: 0.00
Gene SLC19A3, hepatocytes
  RNA-seq results: SLC19A3: −0.03
Gene SLC22A1, hepatocytes
  RNA-seq results: SLC22A1: −0.32
Gene SLC22A5, hepatocytes
  RNA-seq results: SLC22A5: 0.05
Gene SLC25A1, hepatocytes
  RNA-seq results: SLC25A1: 0.08
Gene SLC25A10, hepatocytes
  RNA-seq results: SLC25A10: −0.16
Gene SLC25A12, hepatocytes
  RNA-seq results: SLC25A12: 0.23
Gene SLC25A13, hepatocytes
  RNA-seq results: SLC25A13: −0.13
Gene SLC25A15, hepatocytes
  RNA-seq results: SLC25A15: 0.02
Gene SLC25A19, hepatocytes
  RNA-seq results: SLC25A19: −0.15
Gene SLC25A20, hepatocytes
  RNA-seq results: SLC25A20: −0.16
Gene SLC25A29, hepatocytes
  RNA-seq results: SLC25A29: 0.09
Gene SLC25A32, hepatocytes
  RNA-seq results: SLC25A32: −0.05
